# “And” between values parts separate entries of the source, which are not always exact repeats. Identical values can stand only once. ± gives the expanded uncertainty stated by the source.
# Assay: not given
# Conditions: 293.15 K; 100 kPa; Liquid; Frequency=3 MHz; Single path-length method
row,SMILES,speed of sound
1,CC(=O)CC(C)C [4-methylpentan-2-one],1212.3 ± 1.6 m/s
2,CC(C)=O [acetone],1184.3 ± 1.4 m/s
3,CC#N [acetonitrile],1299.7 ± 1.3 m/s
4,C1CCCCC1 [cyclohexane],1279.5 ± 1.4 m/s
5,C[S+](C)[O-] [dimethyl sulfoxide],1504.7 ± 1.4 m/s

# Same assay, conditions: 293.15 K; 100 kPa; Liquid; Vibrating tube method
row,SMILES,mass density
1,CC(=O)CC(C)C [4-methylpentan-2-one],801 ± 3 kg/m3 and 800 ± 3 kg/m3
2,CC(C)=O [acetone],790 ± 3 kg/m3
3,CC#N [acetonitrile],782 ± 3 kg/m3
4,C1CCCCC1 [cyclohexane],779 ± 3 kg/m3 and 778 ± 3 kg/m3
5,C[S+](C)[O-] [dimethyl sulfoxide],1100 ± 3 kg/m3

# Same assay, conditions: 303.15 K; 100 kPa; Liquid; Frequency=3 MHz; Single path-length method
row,SMILES,speed of sound
1,CC(=O)CC(C)C [4-methylpentan-2-one],1171.4 ± 1.6 m/s
2,CC(C)=O [acetone],1139.4 ± 1.4 m/s
3,CC#N [acetonitrile],1258.8 ± 1.3 m/s
4,C1CCCCC1 [cyclohexane],1230.1 ± 1.4 m/s
5,C[S+](C)[O-] [dimethyl sulfoxide],1471 ± 1.4 m/s

# Same assay, conditions: 303.15 K; 100 kPa; Liquid; Vibrating tube method
row,SMILES,mass density
1,CC(=O)CC(C)C [4-methylpentan-2-one],792 ± 3 kg/m3
2,CC(C)=O [acetone],779 ± 3 kg/m3
3,CC#N [acetonitrile],771 ± 3 kg/m3
4,C1CCCCC1 [cyclohexane],769 ± 3 kg/m3
5,C[S+](C)[O-] [dimethyl sulfoxide],1090 ± 3 kg/m3

# Same assay, conditions: 313.15 K; 100 kPa; Liquid; Frequency=3 MHz; Single path-length method
row,SMILES,speed of sound
1,CC(=O)CC(C)C [4-methylpentan-2-one],1131.4 ± 1.6 m/s
2,CC(C)=O [acetone],1094.6 ± 1.4 m/s
3,CC#N [acetonitrile],1218.4 ± 1.3 m/s
4,C1CCCCC1 [cyclohexane],1181.8 ± 1.4 m/s
5,C[S+](C)[O-] [dimethyl sulfoxide],1437.4 ± 1.4 m/s

# Same assay, conditions: 313.15 K; 100 kPa; Liquid; Vibrating tube method
row,SMILES,mass density
1,CC(=O)CC(C)C [4-methylpentan-2-one],782 ± 3 kg/m3
2,CC(C)=O [acetone],767 ± 3 kg/m3
3,CC#N [acetonitrile],760 ± 3 kg/m3
4,C1CCCCC1 [cyclohexane],760 ± 3 kg/m3 and 759 ± 3 kg/m3
5,C[S+](C)[O-] [dimethyl sulfoxide],1080 ± 3 kg/m3

# Assay: refractive index (Na D-line) (dimensionless)
# Conditions: 293.15 K; 100 kPa; Liquid; Standard Abbe refractometry
row,SMILES,refractive index
1,CC(=O)CC(C)C [4-methylpentan-2-one],1.396 ± 0.005
2,CC(C)=O [acetone],1.359 ± 0.005
3,CC#N [acetonitrile],1.344 ± 0.005
4,C1CCCCC1 [cyclohexane],1.426 ± 0.005
5,C[S+](C)[O-] [dimethyl sulfoxide],1.48 ± 0.005 and 1.479 ± 0.005

# Same assay, conditions: 303.15 K; 100 kPa; Liquid; Standard Abbe refractometry
row,SMILES,refractive index
1,CC(=O)CC(C)C [4-methylpentan-2-one],1.391 ± 0.005
2,CC(C)=O [acetone],1.353 ± 0.005
3,CC#N [acetonitrile],1.339 ± 0.005
4,C1CCCCC1 [cyclohexane],1.421 ± 0.005
5,C[S+](C)[O-] [dimethyl sulfoxide],1.475 ± 0.005

# Same assay, conditions: 313.15 K; 100 kPa; Liquid; Standard Abbe refractometry
row,SMILES,refractive index
1,CC(=O)CC(C)C [4-methylpentan-2-one],1.387 ± 0.005
2,CC(C)=O [acetone],1.348 ± 0.005
3,CC#N [acetonitrile],1.334 ± 0.005
4,C1CCCCC1 [cyclohexane],1.415 ± 0.005
5,C[S+](C)[O-] [dimethyl sulfoxide],1.47 ± 0.005

# Assay: xn = mol fraction of the nth substance listed
# Conditions: 293.15 K; 100 kPa; Liquid; Frequency=3 MHz; Single path-length method; x2 = 0
row,SMILES,speed of sound
1,CC(C)=O [acetone] + CC(=O)CC(C)C,1184.3 ± 1.4 m/s
2,CC#N [acetonitrile] + CC(=O)CC(C)C,1299.7 ± 1.3 m/s
3,C1CCCCC1 [cyclohexane] + CC(=O)CC(C)C,1279.5 ± 1.4 m/s
4,C[S+](C)[O-] [dimethyl sulfoxide] + CC(=O)CC(C)C,1504.7 ± 1.4 m/s

# Same assay, conditions: 293.15 K; 100 kPa; Liquid; Vibrating tube method; x2 = 0
row,SMILES,mass density
1,CC(C)=O [acetone] + CC(=O)CC(C)C,790 ± 3 kg/m3
2,CC#N [acetonitrile] + CC(=O)CC(C)C,782 ± 3 kg/m3
3,C1CCCCC1 [cyclohexane] + CC(=O)CC(C)C,779 ± 3 kg/m3
4,C[S+](C)[O-] [dimethyl sulfoxide] + CC(=O)CC(C)C,1100 ± 3 kg/m3

# Same assay, conditions: 303.15 K; 100 kPa; Liquid; Frequency=3 MHz; Single path-length method; x2 = 0
row,SMILES,speed of sound
1,CC(C)=O [acetone] + CC(=O)CC(C)C,1139.4 ± 1.4 m/s
2,CC#N [acetonitrile] + CC(=O)CC(C)C,1258.8 ± 1.3 m/s
3,C1CCCCC1 [cyclohexane] + CC(=O)CC(C)C,1230.1 ± 1.4 m/s
4,C[S+](C)[O-] [dimethyl sulfoxide] + CC(=O)CC(C)C,1471 ± 1.4 m/s

# Same assay, conditions: 303.15 K; 100 kPa; Liquid; Vibrating tube method; x2 = 0
row,SMILES,mass density
1,CC(C)=O [acetone] + CC(=O)CC(C)C,779 ± 3 kg/m3
2,CC#N [acetonitrile] + CC(=O)CC(C)C,771 ± 3 kg/m3
3,C1CCCCC1 [cyclohexane] + CC(=O)CC(C)C,769 ± 3 kg/m3
4,C[S+](C)[O-] [dimethyl sulfoxide] + CC(=O)CC(C)C,1090 ± 3 kg/m3

# Same assay, conditions: 313.15 K; 100 kPa; Liquid; Frequency=3 MHz; Single path-length method; x2 = 0
row,SMILES,speed of sound
1,CC(C)=O [acetone] + CC(=O)CC(C)C,1094.6 ± 1.4 m/s
2,CC#N [acetonitrile] + CC(=O)CC(C)C,1218.4 ± 1.3 m/s
3,C1CCCCC1 [cyclohexane] + CC(=O)CC(C)C,1181.8 ± 1.4 m/s
4,C[S+](C)[O-] [dimethyl sulfoxide] + CC(=O)CC(C)C,1437.4 ± 1.4 m/s

# Same assay, conditions: 313.15 K; 100 kPa; Liquid; Vibrating tube method; x2 = 0
row,SMILES,mass density
1,CC(C)=O [acetone] + CC(=O)CC(C)C,767 ± 3 kg/m3
2,CC#N [acetonitrile] + CC(=O)CC(C)C,760 ± 3 kg/m3
3,C1CCCCC1 [cyclohexane] + CC(=O)CC(C)C,760 ± 3 kg/m3
4,C[S+](C)[O-] [dimethyl sulfoxide] + CC(=O)CC(C)C,1080 ± 3 kg/m3

# Assay: refractive index (Na D-line) (dimensionless); xn = mol fraction of the nth substance listed
# Conditions: 293.15 K; 100 kPa; Liquid; Standard Abbe refractometry; x2 = 0
row,SMILES,refractive index
1,CC(C)=O [acetone] + CC(=O)CC(C)C,1.359 ± 0.005
2,CC#N [acetonitrile] + CC(=O)CC(C)C,1.344 ± 0.005
3,C1CCCCC1 [cyclohexane] + CC(=O)CC(C)C,1.426 ± 0.005
4,C[S+](C)[O-] [dimethyl sulfoxide] + CC(=O)CC(C)C,1.48 ± 0.005

# Same assay, conditions: 303.15 K; 100 kPa; Liquid; Standard Abbe refractometry; x2 = 0
row,SMILES,refractive index
1,CC(C)=O [acetone] + CC(=O)CC(C)C,1.353 ± 0.005
2,CC#N [acetonitrile] + CC(=O)CC(C)C,1.339 ± 0.005
3,C1CCCCC1 [cyclohexane] + CC(=O)CC(C)C,1.421 ± 0.005
4,C[S+](C)[O-] [dimethyl sulfoxide] + CC(=O)CC(C)C,1.475 ± 0.005

# Same assay, conditions: 313.15 K; 100 kPa; Liquid; Standard Abbe refractometry; x2 = 0
row,SMILES,refractive index
1,CC(C)=O [acetone] + CC(=O)CC(C)C,1.348 ± 0.005
2,CC#N [acetonitrile] + CC(=O)CC(C)C,1.334 ± 0.005
3,C1CCCCC1 [cyclohexane] + CC(=O)CC(C)C,1.415 ± 0.005
4,C[S+](C)[O-] [dimethyl sulfoxide] + CC(=O)CC(C)C,1.47 ± 0.005

# Source: the NIST ThermoML archive (doi:10.1016/j.jct.2017.06.008)
